Assay results taken from patent US8658351B2, “Determining liver toxicity of an agent using metabolite biomarkers” (Metabolon, Inc., priority 2009, dated 2014).
Read-outs that look alike come from different tables or passages of the source.

How the values were obtained:
[1] = test system: Rats; experiment: Rat liver toxicant study: liver histopathology; conditions: for Histopathology (Steatosis) / Histopathology (Cholestasis) / Histopathology (Necrosis): rats, daily single oral dose; for Histopathology (Steatosis) / Histopathology (Cholestasis): day at which change was seen; for Histopathology (Necrosis): day at which change was seen (samples day 2 and day 5)
Method: Rats were treated daily with a single oral dose of a known liver toxicants at low and high doses (as shown in Table 3) as well as with a vehicle control containing none of the toxicant. The hepatotoxic agents listed in Table 3 are known to induce distinct types of liver histopathology as described in Table 4. Plasma, urine, and liver samples were collected at day 2 and day 5 for metabolomic analysis, liver histopathology, and routine clinical chemistry (i.e., aspartate aminotransferase (AST), alanine aminotransferase (ALT), total bilirubin (TBIL), alkaline phosphatase (ALP)).

[2] = test system: Rats; experiment: Rat liver toxicant study: routine clinical chemistry (AST, ALT, TBIL, ALP); type: in vivo; conditions: day at which change was seen
Method: Rats were treated daily with a single oral dose of a known liver toxicants at low and high doses (as shown in Table 3) as well as with a vehicle control containing none of the toxicant. […] Plasma, urine, and liver samples were collected at day 2 and day 5 for metabolomic analysis, liver histopathology, and routine clinical chemistry (i.e., aspartate aminotransferase (AST), alanine aminotransferase (ALT), total bilirubin (TBIL), alkaline phosphatase (ALP)).

[3] = test system: humans; conditions: cited from earlier work
[4] = test system: Rats; conditions: cited from earlier work
[5] = classified as No Rat Tox/Human specific
[6] = High dose, agents known to induce distinct types of liver histopathology

CN(C)[C@@H]1C(O)=C(C(N)=O)C(=O)[C@@]2(O)C(O)=C3C(=O)c4c(O)cccc4[C@@](C)(O)[C@H]3C[C@@H]12 [Tetracycline]
Histopathology (Steatosis) ([1]; high dose): Day5
Histopathology (Steatosis) ([1]; low dose): Day2~

S=C=Nc1cccc2ccccc12 [ANIT, 1-naphthyl isothiocyanate]
Histopathology (Cholestasis) ([1]; high dose): Day2~
Histopathology (Cholestasis) ([1]; low dose): Day5
Clinical Chemistry ALT ([2]; high dose): Day2~
Clinical Chemistry AST ([2]; high dose): Day2~
Clinical Chemistry TBIL ([2]; high dose): Day2~
Clinical Chemistry ALT ([2]; low dose): Day5
Clinical Chemistry TBIL ([2]; low dose): Day5

Clc1ccccc1CN1CCc2sccc2C1 [Ticlopidine]
Histopathology (Necrosis) ([1]; high dose): Day5

CC(C)C(=O)Nc1ccc([N+](=O)[O-])c(C(F)(F)F)c1 [Flutamide]
Hepatotoxic changes in rats (histopathology, clinical chemistry) [1, 5]: no hepatotoxic changes
Clinical Chemistry TBIL ([2]; high dose): Day2
Hepatotoxicity to humans [3]: known hepatotoxins to humans
Classification of toxic effect on liver histopathology (type of histopathology) ([4]; rat, in vivo): No Histopathology

NC(=O)N1c2ccccc2C=Cc2ccccc21 [Carbamazepine]
Hepatotoxic changes in rats (histopathology, clinical chemistry) [1, 5]: no hepatotoxic changes
Hepatotoxicity to humans [3]: known hepatotoxins to humans
Classification of toxic effect on liver histopathology (type of histopathology) ([4]; rat, in vivo): No Histopathology

O=C(O)COc1nn(Cc2ccccc2)c2ccccc12 [Bendazac]
Histopathology (Necrosis) ([1]; high dose): Day5
Histopathology (Necrosis) ([1]; low dose): Day5
Clinical Chemistry ALP ([2]; high dose): Day2~
Clinical Chemistry ALT ([2]; high dose): Day5
Clinical Chemistry ALP ([2]; low dose): Day2
Clinical Chemistry ALT ([2]; low dose): Day5
Classification of toxic effect on liver histopathology (type of histopathology) ([4]; rat, in vivo): Necrosis

CN(C)CCN(Cc1cccs1)c1ccccn1 [Methapyrilene]
Histopathology (Necrosis) ([1]; high dose): Day2~
Histopathology (Necrosis) ([1]; low dose): Day5
Clinical Chemistry ALP ([2]; high dose): Day5
Clinical Chemistry ALT ([2]; high dose): Day2~
Clinical Chemistry AST ([2]; high dose): Day2~
Clinical Chemistry TBIL ([2]; high dose): Day2~
Clinical Chemistry ALT ([2]; low dose): Day5
Clinical Chemistry AST ([2]; low dose): Day5
Clinical Chemistry TBIL ([2]; low dose): Day5
Classification of toxic effect on liver histopathology (type of histopathology) ([4]; rat, in vivo): Necrosis

CC(=O)Nc1ccc(O)cc1 [Acetaminophen]
Histopathology (Necrosis) ([1]; high dose): Day2
Histopathology (Necrosis) ([1]; low dose): Day2

CC(=O)N1CCN(c2ccc(OCC3COC(Cn4ccnc4)(c4ccc(Cl)cc4Cl)O3)cc2)CC1 (stereo not shown) [Ketoconazole]
Classification of toxic effect on liver histopathology (type of histopathology) ([4]; rat, in vivo): Phospholipidosis

CCSCCC(N)C(=O)O (racemic) [Ethionine, DL Ethionine]
Histopathology (Steatosis) ([1]; high dose): Day2~
Histopathology (Steatosis) ([1]; low dose): Day2
Clinical Chemistry TBIL ([2]; high dose): Day2~
Clinical Chemistry TBIL ([2]; low dose): Day2~
Classification of toxic effect on liver histopathology (type of histopathology) [4, 6]: Steatosis

ClC(Cl)(Cl)Cl [Carbon tetrachloride]
Histopathology (Steatosis) ([1]; high dose): Day2~
Histopathology (Steatosis) ([1]; low dose): Day2~
Classification of toxic effect on liver histopathology (type of histopathology) [4, 6]: Steatosis

CS(=O)(=O)Nc1ccc([N+](=O)[O-])cc1Oc1ccccc1 [Nimesulide]
Hepatotoxic changes in rats (histopathology, clinical chemistry) ([1]; rat, in vivo): no hepatotoxic changes
Clinical Chemistry TBIL ([2]; high dose): Day2
Clinical Chemistry ALT ([2]; low dose): Day5
Clinical Chemistry TBIL ([2]; low dose): Day2
